# From ChEMBL document CHEMBL1140845, “Synthesis of deoxygenated alpha(1-->5)-linked arabinofuranose disaccharides as substrates and inhibitors of arabinosyltransferases of Mycobacterium tuberculosis” (Bioorg Med Chem, 2009)
# Calls of active or inactive are those of the source. No cut-off for these calls is given here.
# System: Mycobacterium tuberculosis
# Test: Antimycobacterial activity against multidrug resistant Mycobacterium tuberculosis H37Ra at 12.8 to 128 ug/mL
# Type: functional, organism-based
row,SMILES,Activity
1,CCCCCCCCO[C@H]1O[C@H](CO[C@H]2O[C@H](CO)[C@@H](O)[C@@H]2O)[C@@H](O)[C@@H]1F,Active
2,CCCCCCCCO[C@@H]1C[C@H](O)[C@@H](CO[C@H]2O[C@H](CO)[C@@H](O)[C@@H]2O)O1,Active
3,CCCCCCCCO[C@H]1O[C@H](CO[C@H]2O[C@H](CO)[C@@H](O)[C@@H]2O)C[C@@H]1O,Active
